Earlier results in patent US12377034B2, “Method for dyeing keratinous material, comprising the use of an organosilicon compound, an effect pigment and a film-forming polymer II” (Henkel AG & Co. KGaA, priority 2019, dated 2025).

Settings: for solubility in water: 25° C.

Structure (SMILES) | solubility in water | solubility in water (in words) (at 25° C.)
CCN(Cc1cccc(S(=O)(=O)O)c1)c1ccc(C(=C2C=CC(=[N+](CC)Cc3cccc(S(=O)(=O)O)c3)C=C2)c2ccccc2S(=O)(=O)[O-])cc1 [Acid Blue 9] | more than 20 % by weight | 
O=S(=O)(O)c1ccc(N=Nc2c(O)ccc3ccccc23)cc1 [Acid Orange 7, 4-[(2-hydroxy-1-naphthyl)azo]benzene sulphonate] | more than 7 g/L | 
O=[N+]([O-])c1cc([N+](=O)[O-])c2ccc(S(=O)(=O)O)cc2c1O [Acid Yellow 9, 8-hydroxy-5,7-dinitro-2-naphthalenesulfonic acid] | above 40 g/L | 
O=C(O)C1=NN(c2ccc(S(=O)(=O)O)cc2)C(=O)C1N=Nc1ccc(S(=O)(=O)O)cc1 (stereo not shown) [Acid Yellow 23, 4,5-dihydro-5-oxo-1-(4-sulfophenyl)-4-((4-sulfophenyl)azo)-1H-pyrazole-3-carboxylic acid] |  | highly soluble
